Converted amounts (≈) assume the structure as drawn. Where two headings read alike, the source gives them in different places.
How the values were obtained:
[1] = system: polyresistant Mtb strains; conditions: polyresistant Mtb strains (e.g., INH, STR, EMB); cited from earlier work
Mtb Praha 1 = test: microbe, parasite or virus in culture; assay type: cell-based; conditions: Mycobacterium tuberculosis, read-out: MIC Mtb Praha 1
Mtb Praha 4 = test: microbe, parasite or virus in culture; assay type: cell-based; conditions: Mycobacterium tuberculosis, read-out: MIC Mtb Praha 4
Mtb Praha 131 = test: microbe, parasite or virus in culture; assay type: cell-based; conditions: Mycobacterium tuberculosis, read-out: MIC Mtb Praha 131
Mtb 234/2005 = test: microbe, parasite or virus in culture; assay type: cell-based; conditions: Mycobacterium tuberculosis, read-out: MIC Mtb 234/2005
Mtb 9449/2007 = test: microbe, parasite or virus in culture; assay type: cell-based; conditions: Mycobacterium tuberculosis, read-out: MIC Mtb 9449/2007
Mtb 7357/1998 = test: microbe, parasite or virus in culture; assay type: cell-based; conditions: Mycobacterium tuberculosis, read-out: MIC Mtb 7357/1998
Mtb 8666/2010 = test: microbe, parasite or virus in culture; assay type: cell-based; conditions: Mycobacterium tuberculosis, read-out: MIC Mtb 8666/2010

| SMILES | inhibitory concentration (MIC) [1] | MIC (Mtb Praha 1; PRAHA1, 336 h) | MIC (Mtb Praha 1; PRAHA1, 504 h) | MIC (Mtb Praha 4; PRAHA4, 336 h) | MIC (Mtb Praha 4; PRAHA4, 504 h) | MIC (Mtb Praha 131; PRAHA131, 336 h) | MIC (Mtb Praha 131; PRAHA131, 504 h) | MIC (Mtb 234/2005; 234/2005, 336 h) | MIC (Mtb 234/2005; 234/2005, 504 h) | MIC (Mtb 9449/2007; 9449/2007, 336 h) | MIC (Mtb 9449/2007; 9449/2007, 504 h) | MIC (Mtb 7357/1998; 7357/1998, 336 h) | MIC (Mtb 7357/1998; 7357/1998, 504 h) | MIC (Mtb 8666/2010; 8666/2010, 336 h) | MIC (Mtb 8666/2010; 8666/2010, 504 h) |
| --- | --- | --- | --- | --- | --- | --- | --- | --- | --- | --- | --- | --- | --- | --- | --- |
| CCCCCCCCCCCCCCCCCc1nnc(-c2ccncc2)o1 [III] | ≥ 2.59 µM |  |  |  |  |  |  |  |  |  |  |  |  |  |  |
| CCCCCCCCCCCCCCCc1nnc(-c2ccncc2)o1 [II] | ≥ 2.59 µM |  |  |  |  |  |  |  |  |  |  |  |  |  |  |
| CCCCCCCNC(=O)NNC(=O)c1cc([N+](=O)[O-])cc([N+](=O)[O-])c1 [Compound 4g, 2-(3,5-Dinitrobenzoyl)-N-heptylhydrazine-1-carboxamide] |  | 1 µM (≈ 0.367 µg/mL) | 2 µM (≈ 0.735 µg/mL) | 1 µM (≈ 0.367 µg/mL) | 1 µM (≈ 0.367 µg/mL) | 1 µM (≈ 0.367 µg/mL) | 2 µM (≈ 0.735 µg/mL) | 1 µM (≈ 0.367 µg/mL) | 2 µM (≈ 0.735 µg/mL) | 1 µM (≈ 0.367 µg/mL) | 1 µM (≈ 0.367 µg/mL) | 1 µM (≈ 0.367 µg/mL) | 1 µM (≈ 0.367 µg/mL) | 1 µM (≈ 0.367 µg/mL) | 1 µM (≈ 0.367 µg/mL) |
| CCCCCNc1nnc(-c2cc([N+](=O)[O-])cc([N+](=O)[O-])c2)o1 [Compound 5e, 5-(3,5-Dinitrophenyl)-N-pentyl-1,3,4-oxadiazol-2-amine] |  | 0.125 µM (≈ 0.0402 µg/mL) | 0.25 µM (≈ 0.0803 µg/mL) | 0.125 µM (≈ 0.0402 µg/mL) | 0.5 µM (≈ 0.161 µg/mL) | 0.125 µM (≈ 0.0402 µg/mL) | 0.125 µM (≈ 0.0402 µg/mL) | 0.125 µM (≈ 0.0402 µg/mL) | 0.125 µM (≈ 0.0402 µg/mL) | 0.125 µM (≈ 0.0402 µg/mL) | 0.125 µM (≈ 0.0402 µg/mL) | 0.125 µM (≈ 0.0402 µg/mL) | 0.125 µM (≈ 0.0402 µg/mL) | 0.125 µM (≈ 0.0402 µg/mL) | 0.125 µM (≈ 0.0402 µg/mL) |
